According to ChEMBL document CHEMBL1201862, “PubChem BioAssay data set” (2004):
Active and inactive are the calls of the source.

Columns and labels:
[1] = target: T1, COUP transcription factor 2 (Homo sapiens, UniProt P24468); test: Luminescence-based cell-based high throughput dose response assay to identify inhibitors of COUP-TFII (NR2F2).; type: functional;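 note: HEK293 cells transiently cotransfected with COUP-TFII expression vector and reporter; luciferase reporter luminescence driven by COUP-TFII from the pX2-168 reporter plasmid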
T1 sequence (P24468 whole entry): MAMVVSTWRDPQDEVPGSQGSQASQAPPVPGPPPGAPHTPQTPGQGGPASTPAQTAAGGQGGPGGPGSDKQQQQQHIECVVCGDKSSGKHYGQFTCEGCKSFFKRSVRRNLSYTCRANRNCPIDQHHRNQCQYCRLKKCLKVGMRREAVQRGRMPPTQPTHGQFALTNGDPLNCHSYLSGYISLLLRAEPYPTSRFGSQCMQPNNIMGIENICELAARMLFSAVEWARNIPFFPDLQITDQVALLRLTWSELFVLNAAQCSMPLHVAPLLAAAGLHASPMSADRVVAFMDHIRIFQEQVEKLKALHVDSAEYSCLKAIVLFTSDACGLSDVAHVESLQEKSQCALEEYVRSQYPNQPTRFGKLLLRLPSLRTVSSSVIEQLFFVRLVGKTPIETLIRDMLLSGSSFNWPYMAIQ

cells [2] = type: functional, cell-based; settings: HEK-CNG
Jurkat = test: antigen receptor-induced NF-kB inhibitors, dose response, Jurkat, luciferase reporter, luminescence, B- and T-cell (AID 489004); type: functional, cell-based; settings: Homo sapiens;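 note: NF-kB luciferase reporter Jurkat cells stimulated with PMA plus ionomycin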
INS1 = test: beta cell apoptosis inhibitors, cytokine rescue, dose response, luminescence, retest (AID 449756); type: functional, cell-based; settings: Rattus norvegicus;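 note: cell death triggered by IL-1 beta plus TNF-alpha plus IFN-gamma mixture; protective hits raise ATP signal compared with cytokine alone wells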
Galanin receptor type 3 = Galanin receptor type 3 (Homo sapiens, UniProt O60755); test: Fluorescence-based cell-based primary high throughput dose response assay to identify antagonists of the Galanin Receptor 3 (GalR3).; type: functional
[3] = Shn3 3'UTR reporter inhibitors, dose response, cell-based, Clone20 osteoblasts, firefly luciferase, cherry-picked (AID 624132); type: functional;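 note: firefly luciferase luminescence from reporter carrying the Shn3 3'UTR in osteoblasts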
[4] = control 3'UTR Renilla luciferase suppression, dose response, counter-screen for Shn3 inhibitor project, cell-based, Clone20-Shn3RL, cherry-picked (AID 624133); type: functional
[5] = cytotoxicity in HEK-293T NF-kB-Luc cells, dose response, cytotoxicity control for B/T-cell NF-kB inhibitor project, cell-based, uHTS hits (AID 489019); type: functional;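 note: IC50 reflects cytotoxicity as loss of cell viability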
[6] = THP-1 cell cytotoxicity, dose response, cytotoxicity control for non-replicating M. tuberculosis project (AID 489025); type: functional
[7] = NIH-3T3 fibroblast cytotoxicity, dose response, cytotoxicity control, cell-based, fluorescence, Alamar Blue, secondary assay (AID 2327); type: functional;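 note: NIH-3T3 mouse fibroblasts cultured with fluconazole at 8 µg/mL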
Galanin receptor type 2 = Galanin receptor type 2 (Homo sapiens, UniProt O43603); test: Dose Response cell-based high-throughput screening assay to identify antagonists of galanin receptor 2 (GALR2). [Related pubchem assays: 828, 866 ]; type: functional
A-375 [8] = test: A375 melanoma cell viability reduction, dose response, counter-screen for MITF modulator project, cherry-pick samples, set 2 (AID 540335); type: functional, cell-based; settings: Homo sapiens
[9] = target: Heat shock protein HSP 90-alpha (Homo sapiens, UniProt P07900); type: functional, organism-based
A-375 [10] = test: MITF: Counter assay: A375 proliferation Measured in Cell-Based System Using Plate Reader - 2084-03_Inhibitor_Dose_DryPowder_Activity. [Related pubchem assays (depositor defined):AID488944]; type: functional; settings: Homo sapiens
Beta-galactosidase = Beta-galactosidase (Escherichia coli, UniProt Q8VNN2); test: beta-galactosidase enzyme inhibitors and activators, dose response, artefact control for CCR6 antagonist project, biochemical, E. coli enzyme, set 3 (AID 504712); type: functional
cells [11] = type: functional
[12] = C. albicans growth with fluconazole, confirmation, fluorescence, retest (AID 2467); type: functional, cell-based
[13] = target: T2, Microphthalmia-associated transcription factor (Homo sapiens, UniProt O75030); test: TRPM1 promoter luciferase signal decrease, dose response, MITF inhibitor project, cell-based, SK-MEL-5, cherry-picked, set 3 (AID 493073); type: functional
T2 sequence (O75030 whole entry): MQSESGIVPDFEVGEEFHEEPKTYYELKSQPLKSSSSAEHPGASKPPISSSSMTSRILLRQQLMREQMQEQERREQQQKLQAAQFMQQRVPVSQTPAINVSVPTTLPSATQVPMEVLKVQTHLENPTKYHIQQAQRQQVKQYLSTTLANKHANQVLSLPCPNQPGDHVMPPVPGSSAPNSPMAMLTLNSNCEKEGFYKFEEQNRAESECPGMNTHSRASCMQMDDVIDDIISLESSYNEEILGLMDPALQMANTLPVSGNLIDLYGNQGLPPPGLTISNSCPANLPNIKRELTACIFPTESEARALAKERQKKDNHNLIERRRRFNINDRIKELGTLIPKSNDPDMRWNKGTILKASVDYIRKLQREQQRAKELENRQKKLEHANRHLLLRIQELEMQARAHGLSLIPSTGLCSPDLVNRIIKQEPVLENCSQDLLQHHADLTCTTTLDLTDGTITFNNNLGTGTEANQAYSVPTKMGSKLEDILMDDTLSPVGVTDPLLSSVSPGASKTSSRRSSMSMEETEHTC

[14] = Late-stage probe development counterscreen for inhibitors of the Hepatitis C Virus non-structural protein 3 helicase (NS3): luminescence-based cell-based dose response assay to determine whether compounds that inhibit replication of HCV RNA replicon are cytotoxic. [Related pubchem assays (depositor defined):AID1800, AID1830, AID1845, AID1943, AID1945, AID2172, AID2173, AID2474, AID2476]; type: functional
NS3 = NS3 (Hepatitis C virus, UniProt A3EZJ3); test: PubChem AID 2173; design: species or system Hepacivirus hominis
HeLa = test: HeLa cell cytotoxicity, dose response, cytotoxicity control for MITF activator project, CellTiter-Glo luminescence, cherry-pick samples (AID 540259); type: functional, cell-based; settings: Homo sapiens
[15] = target: T3, Rac GTPase-activating protein 1 (Homo sapiens, UniProt Q9H0H5); test: MgcRacGAP GTPase-activating activity inhibitors, confirmation, biochemical, ADP Hunter fluorescence, primary and confirmatory (AID 624330); type: functional
T3 sequence (Q9H0H5 whole entry): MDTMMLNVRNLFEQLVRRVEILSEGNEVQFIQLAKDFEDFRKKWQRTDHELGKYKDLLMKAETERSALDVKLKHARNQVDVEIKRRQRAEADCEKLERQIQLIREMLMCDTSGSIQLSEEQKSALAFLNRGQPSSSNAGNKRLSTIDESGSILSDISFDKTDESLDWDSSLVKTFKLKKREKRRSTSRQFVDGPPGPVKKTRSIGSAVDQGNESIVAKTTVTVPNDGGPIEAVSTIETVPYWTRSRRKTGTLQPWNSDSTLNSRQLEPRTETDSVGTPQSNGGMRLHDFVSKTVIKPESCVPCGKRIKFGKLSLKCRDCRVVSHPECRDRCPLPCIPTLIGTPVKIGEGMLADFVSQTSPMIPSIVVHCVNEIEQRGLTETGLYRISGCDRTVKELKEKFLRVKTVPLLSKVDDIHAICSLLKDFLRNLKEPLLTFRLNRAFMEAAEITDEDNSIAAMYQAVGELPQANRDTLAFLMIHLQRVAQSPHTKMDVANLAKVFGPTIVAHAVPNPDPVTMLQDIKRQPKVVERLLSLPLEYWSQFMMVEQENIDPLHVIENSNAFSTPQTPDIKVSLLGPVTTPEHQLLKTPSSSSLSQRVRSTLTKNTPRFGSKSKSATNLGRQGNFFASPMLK

NS3, sequence (A3EZJ3 whole entry): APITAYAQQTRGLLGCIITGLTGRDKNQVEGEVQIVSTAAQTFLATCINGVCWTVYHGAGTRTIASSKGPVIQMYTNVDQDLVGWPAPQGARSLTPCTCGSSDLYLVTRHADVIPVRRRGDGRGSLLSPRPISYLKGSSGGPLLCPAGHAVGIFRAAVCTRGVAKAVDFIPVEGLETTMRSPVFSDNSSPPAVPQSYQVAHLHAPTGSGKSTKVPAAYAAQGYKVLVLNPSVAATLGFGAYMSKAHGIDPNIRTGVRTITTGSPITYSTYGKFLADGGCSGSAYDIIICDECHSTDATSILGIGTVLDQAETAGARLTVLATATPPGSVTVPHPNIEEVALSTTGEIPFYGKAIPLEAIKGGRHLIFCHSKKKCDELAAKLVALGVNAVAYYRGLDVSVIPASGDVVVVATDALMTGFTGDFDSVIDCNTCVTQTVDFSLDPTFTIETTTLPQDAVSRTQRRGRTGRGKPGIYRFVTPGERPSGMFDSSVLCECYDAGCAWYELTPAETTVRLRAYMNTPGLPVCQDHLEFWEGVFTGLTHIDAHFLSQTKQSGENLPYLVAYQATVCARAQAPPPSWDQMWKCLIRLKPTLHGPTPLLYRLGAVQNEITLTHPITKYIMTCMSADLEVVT
Galanin receptor type 3, sequence (O60755 whole entry): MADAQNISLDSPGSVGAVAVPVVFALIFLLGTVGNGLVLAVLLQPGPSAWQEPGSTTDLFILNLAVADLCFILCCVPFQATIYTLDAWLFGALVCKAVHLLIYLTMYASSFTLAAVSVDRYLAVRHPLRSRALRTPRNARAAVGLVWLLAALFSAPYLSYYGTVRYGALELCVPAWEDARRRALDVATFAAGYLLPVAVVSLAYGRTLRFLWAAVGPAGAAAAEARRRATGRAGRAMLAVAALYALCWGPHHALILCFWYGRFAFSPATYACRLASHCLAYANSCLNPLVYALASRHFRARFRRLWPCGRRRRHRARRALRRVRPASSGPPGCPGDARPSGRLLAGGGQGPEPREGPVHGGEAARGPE
Galanin receptor type 2, sequence (O43603 whole entry): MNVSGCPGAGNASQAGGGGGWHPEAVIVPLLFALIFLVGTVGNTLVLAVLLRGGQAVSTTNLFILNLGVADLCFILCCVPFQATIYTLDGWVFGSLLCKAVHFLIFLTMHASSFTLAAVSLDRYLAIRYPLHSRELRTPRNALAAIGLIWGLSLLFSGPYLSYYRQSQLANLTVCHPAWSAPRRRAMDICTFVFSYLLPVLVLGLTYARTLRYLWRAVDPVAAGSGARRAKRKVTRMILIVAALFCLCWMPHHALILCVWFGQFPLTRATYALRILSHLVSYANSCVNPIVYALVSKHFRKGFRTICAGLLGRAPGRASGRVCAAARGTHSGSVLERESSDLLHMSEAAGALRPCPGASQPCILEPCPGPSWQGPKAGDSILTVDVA
Beta-galactosidase, sequence (Q8VNN2 whole entry): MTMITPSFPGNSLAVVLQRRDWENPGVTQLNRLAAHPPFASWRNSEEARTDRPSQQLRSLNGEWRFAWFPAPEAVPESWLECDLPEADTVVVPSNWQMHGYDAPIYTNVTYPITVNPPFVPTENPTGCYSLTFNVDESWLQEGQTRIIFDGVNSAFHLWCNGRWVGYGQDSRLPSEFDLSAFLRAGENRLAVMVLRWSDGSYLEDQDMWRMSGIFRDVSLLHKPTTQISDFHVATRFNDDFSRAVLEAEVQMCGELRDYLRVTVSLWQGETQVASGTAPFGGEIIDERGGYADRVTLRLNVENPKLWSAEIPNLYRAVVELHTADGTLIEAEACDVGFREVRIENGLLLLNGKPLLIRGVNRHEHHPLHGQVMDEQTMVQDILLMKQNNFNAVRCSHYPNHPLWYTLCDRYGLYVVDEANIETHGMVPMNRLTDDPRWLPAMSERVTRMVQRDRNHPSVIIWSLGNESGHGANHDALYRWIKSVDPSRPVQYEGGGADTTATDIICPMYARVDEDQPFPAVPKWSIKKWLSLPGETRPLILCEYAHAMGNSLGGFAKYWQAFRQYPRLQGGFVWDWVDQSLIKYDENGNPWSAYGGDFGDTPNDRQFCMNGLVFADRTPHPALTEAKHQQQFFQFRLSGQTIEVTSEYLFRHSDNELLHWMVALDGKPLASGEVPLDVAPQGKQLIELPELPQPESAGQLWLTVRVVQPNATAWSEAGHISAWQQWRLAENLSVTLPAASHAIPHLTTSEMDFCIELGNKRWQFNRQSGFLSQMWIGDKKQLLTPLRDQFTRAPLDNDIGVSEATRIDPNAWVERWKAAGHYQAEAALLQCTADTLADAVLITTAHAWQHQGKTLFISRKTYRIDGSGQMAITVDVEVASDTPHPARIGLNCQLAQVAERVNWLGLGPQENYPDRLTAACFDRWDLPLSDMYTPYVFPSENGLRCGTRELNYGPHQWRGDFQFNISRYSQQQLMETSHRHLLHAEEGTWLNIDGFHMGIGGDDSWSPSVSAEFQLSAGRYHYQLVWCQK

Question: For COc1ccc(CCNc2ncnc3sccc23)cc1OC, which IC50 [1] is on record?
Answer: 1.97 µM (active)

Question: What about the EC50 (cells [2]) of the same compound?
Answer: > 29.9 µM (inactive)

Question: What about the IC50 (Jurkat) of the same compound?
Answer: > 80 µM (inactive)

Question: What about the AC50 (INS1) of the same compound?
Answer: 0.71 µM (active)

Question: And the IC50 (Galanin receptor type 3)?
Answer: 0.371 µM (active)

Question: And the AC50 [3]?
Answer: < 0.26 µM (active)

Question: And the AC50 [4]?
Answer: 1.5 µM (active)

Question: What about the IC50 [5] of the same compound?
Answer: > 80 µM (inactive)

Question: Which CC50 [6] does the source give for CCOC(=O)c1cc([N+](=O)[O-])c([N+](=O)[O-])cc1NC(C)=O here?
Answer: 13.1 µM (active)

Question: And the EC50 [7]?
Answer: 4.65 µM (inconclusive)

Question: And the IC50 (Galanin receptor type 2)?
Answer: 10.3 µM (not active)

Question: And the AC50 (A-375 [8])?
Answer: > 35 µM (active)

Question: And the AC50 [9]?
Answer: 2.59 µM (active)

Question: What about the AC50 (A-375 [10]) of the same compound?
Answer: > 35 µM (active)

Question: What about the IC50 (Beta-galactosidase) of the same compound?
Answer: > 66.6 µM (inactive)

Question: And the IC50 (cells [11])?
Answer: 9.64 µM (active)

Question: And the EC50 [12]?
Answer: 2.01 µM (active)

Question: What about the AC50 [13] of the same compound?
Answer: 24.2 µM (active)

Question: Which results are given for CCOc1cccc(C2C(C(=O)c3ccc(C)o3)=C(O)C(=O)N2Cc2ccccc2)c1 (configuration not stated)?
Answer: CC50 [14]: > 100 µM (inactive); IC50 (NS3): 4.29 µM (active)

Question: What does the source list for O=C(Nc1ccc(O)cc1)c1cc2ccccc2c(=O)s1?
Answer: AC50 (HeLa): > 350 µM (inactive); IC50 [15]: 23.3 µM (active)
